Entries after “also recorded” stand apart in the source; their conditions may differ.
Key:
[1] = system: Fas-L; experiment: Fas-L expression in MSCs (western blotting); assay type: cell-based, mice
Source text: Bone marrow cells were flushed from the bone cavity of femurs and tibias of B6 mice (C57BL/6 J) with about 2% heat inactivated fetal bovine serum (Equitech-Bio, Kerrville, Tex., USA) in PBS, and MSCs positive for CD73, CD90, CD105, CD146, CD166, Sca-1 and SSEA-4, but negative for CD11b, CD31, CD34 and CD45, were obtained as previously described by Liu et al. “Mesenchymal stem cell-based tissue regeneration is governed by recipient T lymphocytes via IFN-γ and TNF-α” Nat Med 2011, 17:1594-1601. The entire content of this publication is incorporated herein by reference. The cells with MSC character were cultured with alpha minimum essential medium (Invitrogen) supplemented with about 20% fetal bovine serum and 2 mM L-glutamine (Invitrogen) in a humidified atmosphere of about 95% air and about 5% CO2 at about 37° C. for about 3 days before co-culture. See Oyajobi et al. “Dual effects of macrophage inflammatory protein-1alpha on osteolysis and tumor burden in the murine 5TGM1 model of myeloma bone disease” Blood 2003, 102:311-319. The entire content of this publication is incorporated herein by reference. Additionally, MSCs, which had no Fas-L, were isolated from generalized lymphoproliferative disease (gld) mice for use in comparative experiments. B6 and gld mice in the same background ([…]) were purchased from the Jackson Laboratory. […]

[2] = system: 5TGM1 MM cells; experiment: MM cell metastasis in lungs and kidneys of MM model mice; assay type: in vivo; conditions: after about 4 weeks
Protocol: A 5TGM1 MM model was conducted in weight-matched, 8-week-old to 10-week-old female bg-nu/nu-xid mice from the Jackson Lab (Bar Harbor, Me., USA). The use of animals for research was approved through the Institutional Ethics Committee/Institutional Review Board of the University of Southern California (protocol #10941). The mice were housed in isolator cages, and autoclaved chow and acidified water were provided ad libitum. Disseminated MM was induced through the intravenous inoculation of about 6×10^6 5TGM1 cells in about 200 μl PBS in bg-nu/nu-xid mice through the tail vein (about 6×10^6/10 g body weight). After tumor cell inoculation, multiple MM model mice were randomized to receive the injection of either MSCs (once, about 1×10^6 MSCs/10 g body weight) via the tail vein (MSC group) or […] (L-PAM; weekly, about 50 μg/10 g body weight) in the abdominal cavity (L-PAM group), as shown in FIG. 1A. See Akiyama et al. “Mesenchymal-stem-cell-induced immunoregulation involves FAS-ligand/FAS-mediated T cell apoptosis” Cell Stem Cell 2012, 10:544-555. The entire content of this publication is incorporated herein by reference. L-Phenylalanine mustard, or L-PAM, otherwise known as melphalan, is used as the standard treatment in older MM patients. […]

[3] = system: 5TGM1 MM cells; experiment: Microcomputed tomography of bone density in MM model mice; assay type: in vivo; conditions: microcomputed tomography after about 4 weeks; P<0.05
Protocol: A 5TGM1 MM model was conducted in weight-matched, 8-week-old to 10-week-old female bg-nu/nu-xid mice from the Jackson Lab (Bar Harbor, Me., USA). The use of animals for research was approved through the Institutional Ethics Committee/Institutional Review Board of the University of Southern California (protocol #10941). The mice were housed in isolator cages, and autoclaved chow and acidified water were provided ad libitum. Disseminated MM was induced through the intravenous inoculation of about 6×10^6 5TGM1 cells in about 200 μl PBS in bg-nu/nu-xid mice through the tail vein (about 6×10^6/10 g body weight). […]
The cross-sectional volumetric bone mineral density was measured in right femur diaphysis of the mice in each group after about 4 weeks of feeding (for each group, n=6). […] Using two-dimensional images, a region of interest in secondary spongiosa was manually drawn near the endocortical surface, and cancellous bone morphometric parameters including the bone volume relative to the tissue volume (percentage) and the trabecular thickness (millimeters) were assessed. A trained observer blinded to the composition of the different groups and treatments received analyzed the number and surface area of radiolucent lesions.

[4] = system: 5TGM1 MM cells; experiment: 5TGM1 multiple myeloma model mice: survival and cancroid pearls; assay type: in vivo
Protocol: A 5TGM1 MM model was conducted in weight-matched, 8-week-old to 10-week-old female bg-nu/nu-xid mice from the Jackson Lab (Bar Harbor, Me., USA). The use of animals for research was approved through the Institutional Ethics Committee/Institutional Review Board of the University of Southern California (protocol #10941). The mice were housed in isolator cages, and autoclaved chow and acidified water were provided ad libitum. Disseminated MM was induced through the intravenous inoculation of about 6×10^6 5TGM1 cells in about 200 μl PBS in bg-nu/nu-xid mice through the tail vein (about 6×10^6/10 g body weight). After tumor cell inoculation, multiple MM model mice were randomized to receive the injection of either MSCs (once, about 1×10^6 MSCs/10 g body weight) via the tail vein (MSC group) or […] (L-PAM; weekly, about 50 μg/10 g body weight) in the abdominal cavity (L-PAM group), as shown in FIG. 1A. See Akiyama et al. “Mesenchymal-stem-cell-induced immunoregulation involves FAS-ligand/FAS-mediated T cell apoptosis” Cell Stem Cell 2012, 10:544-555. The entire content of this publication is incorporated herein by reference. L-Phenylalanine mustard, or L-PAM, otherwise known as melphalan, is used as the standard treatment in older MM patients. See Musto P. et al. “Melphalan: old and new uses of a still master drug for multiple myeloma” Expert Opin Investig Drugs 2007, 16:1467-1487. The entire content of this publication is incorporated herein by reference. MM model mice with no treatment served as the positive control (MM group). Original nude mice with no treatment served as the negative control (Control group). The 6-week survival rates of the mice in different groups were compared. After about 4 weeks of feeding, the cancroid pearls in the neck, tail root and abdominal cavity of the mice in different groups were identified for analysis. […]

[5] = neck, tail root and abdominal cavity, after about 4 weeks, versus MM group

CC(=O)Oc1ccccc1C(=O)O [Aspirin, aspirin]
expression of Fas-L in MSCs after aspirin treatment [1]: enhanced expression of Fas-L in MSCs

N[C@@H](Cc1ccc(N(CCCl)CCCl)cc1)C(=O)O [L-PAM, L-Phenylalanine mustard]
metastasis rate in the kidney tissue [2]: no significant difference
bone density (BD) in lumbus and collum femoris [3]: MM group was much lower than those of the MSC group, the L-PAM group
6-week survival rate ([4]; MM model mice, MSCs once via tail vein, L-PAM weekly in abdominal cavity, versus untreated MM group, P<0.05): prolonged survival compared with the MM group; also recorded: higher than the MM group
number of cancroid pearls [4, 5]: no significant difference
size of cancroid pearls [4, 5]: smaller compared with the MM group
